“And” between values parts separate entries of the source, which are not always exact repeats. Identical values can stand only once.
Experiments:
Assay in all cases: PDSP GPCR panel primary binding assays at 10 μM
Details in all cases: primary assay
[1] = molecular target: T1, cloned human or rodent CNS receptors, channels, and transporters (PDSP panel) (Rattus norvegicus, UniProt P16257)
T1 construct: expressed in transfected cells
Protocol: (§1) GPCR panel: Screening against the receptors within the PDSP panel offers an assessment of off-target pharmacological activity at cloned human or rodent CNS receptors, channels, and transporters that could confound CNS-related phenotypes. A total of 46–47 primary binding assays were run in quadruplicate on these compounds at 10 μM, with follow-up secondary binding assays in 11-point dose-response in triplicate for select compounds versus select receptors. Secondary binding assays were executed for all receptors where test compound displaced an average of >50% of radio-labeled standard ligand. As an exception, no secondary assays were carried out for H3, PBR, or GABAA. […]

[2] = molecular target: T2, cloned human or rodent CNS receptors, channels, and transporters (PDSP panel) (Homo sapiens, UniProt P50406)
T2 construct: expressed in transfected cells
T2 sequence (P50406 whole entry): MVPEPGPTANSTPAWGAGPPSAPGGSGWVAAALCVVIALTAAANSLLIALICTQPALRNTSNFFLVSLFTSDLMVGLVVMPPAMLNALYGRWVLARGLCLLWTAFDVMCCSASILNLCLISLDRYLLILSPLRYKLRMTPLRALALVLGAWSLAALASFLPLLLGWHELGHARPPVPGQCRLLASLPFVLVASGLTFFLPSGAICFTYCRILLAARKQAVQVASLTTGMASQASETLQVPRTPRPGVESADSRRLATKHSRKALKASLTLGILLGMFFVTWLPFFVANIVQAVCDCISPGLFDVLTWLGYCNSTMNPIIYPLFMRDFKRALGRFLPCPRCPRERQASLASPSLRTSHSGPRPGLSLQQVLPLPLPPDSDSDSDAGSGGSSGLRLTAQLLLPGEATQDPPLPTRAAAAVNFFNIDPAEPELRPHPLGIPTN
Protocol: as §1

[3] = molecular target: T3, cloned human or rodent CNS receptors, channels, and transporters (PDSP panel) (Homo sapiens, UniProt P14416)
T3 construct: expressed in transfected cells
T3 sequence (P14416 whole entry): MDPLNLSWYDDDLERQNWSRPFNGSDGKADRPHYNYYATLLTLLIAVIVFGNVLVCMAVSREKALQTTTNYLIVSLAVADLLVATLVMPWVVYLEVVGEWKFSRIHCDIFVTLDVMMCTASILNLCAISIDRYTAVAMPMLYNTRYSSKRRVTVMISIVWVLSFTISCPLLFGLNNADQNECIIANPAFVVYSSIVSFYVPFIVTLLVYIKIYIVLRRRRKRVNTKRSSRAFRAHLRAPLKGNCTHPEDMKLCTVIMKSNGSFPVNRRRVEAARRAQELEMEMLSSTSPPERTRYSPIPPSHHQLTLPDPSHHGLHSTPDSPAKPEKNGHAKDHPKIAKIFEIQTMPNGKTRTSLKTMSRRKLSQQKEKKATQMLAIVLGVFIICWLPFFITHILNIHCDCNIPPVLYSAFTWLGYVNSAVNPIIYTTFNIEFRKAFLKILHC
Protocol: as §1

[4] = molecular target: T4, cloned human or rodent CNS receptors, channels, and transporters (PDSP panel) (Homo sapiens, UniProt P41145)
T4 construct: expressed in transfected cells
T4 sequence (P41145 whole entry): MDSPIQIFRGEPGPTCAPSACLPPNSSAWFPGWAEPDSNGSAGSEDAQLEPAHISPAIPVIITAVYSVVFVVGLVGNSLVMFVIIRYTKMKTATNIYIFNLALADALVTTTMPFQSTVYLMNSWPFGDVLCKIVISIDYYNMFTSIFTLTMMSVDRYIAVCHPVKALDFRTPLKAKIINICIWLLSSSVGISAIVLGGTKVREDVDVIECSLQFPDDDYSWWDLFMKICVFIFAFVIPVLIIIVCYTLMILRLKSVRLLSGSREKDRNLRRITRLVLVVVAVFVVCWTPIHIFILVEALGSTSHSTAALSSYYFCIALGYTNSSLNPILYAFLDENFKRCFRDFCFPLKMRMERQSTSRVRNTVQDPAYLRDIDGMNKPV
Protocol: as §1

[5] = molecular target: T5, cloned human or rodent CNS receptors, channels, and transporters (PDSP panel) (Homo sapiens, UniProt P08912)
T5 construct: expressed in transfected cells
T5 sequence (P08912 1-532): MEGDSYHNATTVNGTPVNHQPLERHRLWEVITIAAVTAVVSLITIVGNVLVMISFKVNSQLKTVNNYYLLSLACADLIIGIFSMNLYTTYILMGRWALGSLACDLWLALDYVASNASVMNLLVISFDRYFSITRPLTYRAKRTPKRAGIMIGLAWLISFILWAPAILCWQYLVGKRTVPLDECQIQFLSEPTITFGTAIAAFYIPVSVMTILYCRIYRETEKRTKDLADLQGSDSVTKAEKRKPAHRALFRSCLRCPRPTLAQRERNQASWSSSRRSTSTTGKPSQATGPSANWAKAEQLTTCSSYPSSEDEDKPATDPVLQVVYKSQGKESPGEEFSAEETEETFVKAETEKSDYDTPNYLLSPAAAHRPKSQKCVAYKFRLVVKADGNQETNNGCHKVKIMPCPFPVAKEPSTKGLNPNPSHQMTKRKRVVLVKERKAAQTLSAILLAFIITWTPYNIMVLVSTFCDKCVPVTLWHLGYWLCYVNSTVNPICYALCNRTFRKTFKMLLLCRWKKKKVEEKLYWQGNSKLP
Protocol: as §1

[6] = molecular target: T6, cloned human or rodent CNS receptors, channels, and transporters (PDSP panel) (Homo sapiens, UniProt P35462)
T6 construct: expressed in transfected cells
T6 sequence (P35462 whole entry): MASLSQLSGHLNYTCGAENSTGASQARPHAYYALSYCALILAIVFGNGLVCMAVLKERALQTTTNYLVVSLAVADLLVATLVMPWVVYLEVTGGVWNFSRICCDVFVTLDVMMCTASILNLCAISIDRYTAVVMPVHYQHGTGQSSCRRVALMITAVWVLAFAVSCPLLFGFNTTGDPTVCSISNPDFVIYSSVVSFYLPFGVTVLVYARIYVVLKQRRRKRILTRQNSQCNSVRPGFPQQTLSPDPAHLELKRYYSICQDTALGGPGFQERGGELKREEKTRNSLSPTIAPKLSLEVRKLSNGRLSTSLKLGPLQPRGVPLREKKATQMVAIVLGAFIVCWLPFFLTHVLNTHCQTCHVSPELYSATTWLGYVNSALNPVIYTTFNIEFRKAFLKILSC
Protocol: as §1

[7] = molecular target: T7, cloned human or rodent CNS receptors, channels, and transporters (PDSP panel) (Homo sapiens, UniProt P28335)
T7 construct: expressed in transfected cells
T7 sequence (P28335 33-458): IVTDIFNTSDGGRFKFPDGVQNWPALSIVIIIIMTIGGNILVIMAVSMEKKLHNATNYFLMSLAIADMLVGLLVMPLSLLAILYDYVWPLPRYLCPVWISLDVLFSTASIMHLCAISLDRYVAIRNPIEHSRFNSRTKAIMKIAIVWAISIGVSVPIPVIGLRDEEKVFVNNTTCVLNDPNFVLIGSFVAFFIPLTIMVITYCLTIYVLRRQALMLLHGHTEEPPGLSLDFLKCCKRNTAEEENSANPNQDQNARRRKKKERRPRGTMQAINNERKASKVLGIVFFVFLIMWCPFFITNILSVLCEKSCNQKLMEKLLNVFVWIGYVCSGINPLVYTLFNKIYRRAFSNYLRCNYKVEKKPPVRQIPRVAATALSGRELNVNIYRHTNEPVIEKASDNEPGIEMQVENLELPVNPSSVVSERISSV
Protocol: as §1

[8] = molecular target: T8, cloned human or rodent CNS receptors, channels, and transporters (PDSP panel) (Homo sapiens, UniProt P21728)
T8 construct: expressed in transfected cells
T8 sequence (P21728 whole entry): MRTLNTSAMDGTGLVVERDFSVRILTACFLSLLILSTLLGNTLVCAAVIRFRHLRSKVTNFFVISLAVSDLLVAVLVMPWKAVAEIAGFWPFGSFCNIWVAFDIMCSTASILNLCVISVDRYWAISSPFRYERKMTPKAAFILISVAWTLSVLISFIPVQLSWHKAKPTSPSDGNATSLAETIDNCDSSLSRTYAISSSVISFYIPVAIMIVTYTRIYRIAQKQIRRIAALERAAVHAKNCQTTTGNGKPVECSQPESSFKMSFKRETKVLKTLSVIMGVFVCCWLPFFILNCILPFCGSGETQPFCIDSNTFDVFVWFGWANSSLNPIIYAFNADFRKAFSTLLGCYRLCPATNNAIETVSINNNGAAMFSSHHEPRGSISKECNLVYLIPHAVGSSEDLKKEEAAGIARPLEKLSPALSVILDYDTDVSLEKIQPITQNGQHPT
Protocol: as §1

[9] = molecular target: T9, cloned human or rodent CNS receptors, channels, and transporters (PDSP panel) (Homo sapiens, UniProt P28566)
T9 construct: expressed in transfected cells
T9 sequence (P28566 whole entry): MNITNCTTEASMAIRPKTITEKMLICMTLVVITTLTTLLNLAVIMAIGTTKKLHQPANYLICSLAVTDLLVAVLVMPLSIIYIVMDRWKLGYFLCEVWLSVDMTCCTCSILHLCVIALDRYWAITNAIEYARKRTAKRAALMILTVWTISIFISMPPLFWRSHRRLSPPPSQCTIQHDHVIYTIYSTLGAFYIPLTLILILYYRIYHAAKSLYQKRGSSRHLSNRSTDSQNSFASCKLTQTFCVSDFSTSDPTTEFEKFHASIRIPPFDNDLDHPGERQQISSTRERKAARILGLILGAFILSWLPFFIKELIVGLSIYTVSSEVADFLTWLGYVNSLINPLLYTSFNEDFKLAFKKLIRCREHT
Protocol: as §1

[10] = molecular target: T10, cloned human or rodent CNS receptors, channels, and transporters (PDSP panel) (Homo sapiens, UniProt P41595)
T10 construct: expressed in transfected cells
T10 sequence (P41595 whole entry): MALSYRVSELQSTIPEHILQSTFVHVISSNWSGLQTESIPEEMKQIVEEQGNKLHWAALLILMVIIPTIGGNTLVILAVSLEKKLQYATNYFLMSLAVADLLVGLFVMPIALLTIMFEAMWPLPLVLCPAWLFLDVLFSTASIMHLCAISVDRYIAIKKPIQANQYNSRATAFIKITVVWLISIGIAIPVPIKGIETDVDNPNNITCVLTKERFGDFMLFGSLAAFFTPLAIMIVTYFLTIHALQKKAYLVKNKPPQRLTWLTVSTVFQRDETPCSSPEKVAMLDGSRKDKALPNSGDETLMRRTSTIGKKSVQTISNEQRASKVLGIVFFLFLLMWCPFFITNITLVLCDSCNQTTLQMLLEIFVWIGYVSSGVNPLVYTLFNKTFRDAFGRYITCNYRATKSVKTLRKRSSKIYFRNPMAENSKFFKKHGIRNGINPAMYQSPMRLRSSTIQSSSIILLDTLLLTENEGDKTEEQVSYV
Protocol: as §1

[11] = molecular target: T11, cloned human or rodent CNS receptors, channels, and transporters (PDSP panel) (Homo sapiens, UniProt P23975)
T11 construct: expressed in transfected cells
T11 sequence (P23975 whole entry): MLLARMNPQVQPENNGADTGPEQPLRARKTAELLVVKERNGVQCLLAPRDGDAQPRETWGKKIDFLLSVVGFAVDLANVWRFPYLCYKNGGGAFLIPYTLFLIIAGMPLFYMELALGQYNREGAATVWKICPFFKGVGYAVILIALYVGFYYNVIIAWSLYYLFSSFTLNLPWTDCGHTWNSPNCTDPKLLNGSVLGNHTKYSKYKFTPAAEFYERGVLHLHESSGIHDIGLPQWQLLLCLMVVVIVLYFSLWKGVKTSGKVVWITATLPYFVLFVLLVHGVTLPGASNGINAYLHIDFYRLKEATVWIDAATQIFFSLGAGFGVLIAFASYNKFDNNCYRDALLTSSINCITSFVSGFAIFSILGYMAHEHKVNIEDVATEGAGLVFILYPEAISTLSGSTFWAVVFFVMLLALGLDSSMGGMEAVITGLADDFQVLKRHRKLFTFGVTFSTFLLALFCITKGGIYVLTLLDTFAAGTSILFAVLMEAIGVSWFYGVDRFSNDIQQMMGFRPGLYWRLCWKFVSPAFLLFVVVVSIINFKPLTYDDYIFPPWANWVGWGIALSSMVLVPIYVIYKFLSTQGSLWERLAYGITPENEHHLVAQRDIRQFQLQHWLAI
Protocol: as §1

## Cl.NC(=O)c1cnc(N[C@@H]2CCCC[C@@H]2N)nc1Nc1cccc(-n2nccn2)c1 [UNC10302682A, P505-15 (PRT06207 HCl)]
[1]; Receptor PBR, 10 μM
  Inhibition 1: 32.16% and 27.63%
  Inhibition 2: 2.97% and 6.1%
  Inhibition 4: 18.35% and 12.24%
[1]; Receptor PBR, 10 μM, mean of Inhibition 1-4
  Mean %: 14.68% and 16.23%
[2]; Receptor 5-HT6, 10 μM
  Inhibition 1: -1.07%
  Inhibition 2: -19.49%
  Inhibition 3: -2.98%
  Inhibition 4: -7.9%
[2]; Receptor 5-HT6, 10 μM, mean of Inhibition 1-4
  Mean %: -7.86%
[3]; Receptor D2, 10 μM
  Inhibition 1: 17.73%
  Inhibition 2: -4.34%
  Inhibition 3: 3.54%
  Inhibition 4: 5.97%
[3]; Receptor D2, 10 μM, mean of Inhibition 1-4
  Mean %: 5.73%
[4]; Receptor KOR, 10 μM
  Inhibition 1: -6.83%
  Inhibition 2: -18.02%
  Inhibition 3: -46.91%
  Inhibition 4: -15.34%
[4]; Receptor KOR, 10 μM, mean of Inhibition 1-4
  Mean %: -21.78%
[5]; Receptor M5, 10 μM
  Inhibition 1: 25.92%
  Inhibition 2: 13.95%
  Inhibition 3: 6.2%
  Inhibition 4: -1.55%
[5]; Receptor M5, 10 μM, mean of Inhibition 1-4
  Mean %: 11.13%
[6]; Receptor D3, 10 μM
  Inhibition 1: 15.21%
  Inhibition 2: 7.11%
  Inhibition 3: 21.57%
  Inhibition 4: 8.07%
[6]; Receptor D3, 10 μM, mean of Inhibition 1-4
  Mean %: 12.99%
[7]; Receptor 5-HT2C, 10 μM
  Inhibition 1: 78.04%
  Inhibition 2: 64.79%
  Inhibition 3: 67.73%
  Inhibition 4: 44.66%
[7]; Receptor 5-HT2C, 10 μM, mean of Inhibition 1-4
  Mean %: 63.81%
[8]; Receptor D1, 10 μM
  Inhibition 1: 10.12%
  Inhibition 2: 11.25%
  Inhibition 3: 12.71%
  Inhibition 4: 8.82%
[8]; Receptor D1, 10 μM, mean of Inhibition 1-4
  Mean %: 10.73%
[9]; Receptor 5-HT1E, 10 μM
  Inhibition 1: -23.96%
  Inhibition 2: -26.62%
  Inhibition 3: 0%
  Inhibition 4: -50.26%
[9]; Receptor 5-HT1E, 10 μM, mean of Inhibition 1-4
  Mean %: -25.21%
[10]; Receptor 5-HT2B, 10 μM
  Inhibition 1: 19.24%
  Inhibition 2: 3.3%
  Inhibition 3: -9.28%
  Inhibition 4: -13.48%
[10]; Receptor 5-HT2B, 10 μM, mean of Inhibition 1-4
  Mean %: -0.06%
[11]; Receptor NET, 10 μM
  Inhibition 1: 84.07% and 84.11%
  Inhibition 2: 85.74% and 79.57%
  Inhibition 3: 83.91% and 77.54%
  Inhibition 4: 89.74%
[11]; Receptor NET, 10 μM, mean of Inhibition 1-4
  Mean %: 85.87% and 80.58%

## CC(=O)N1CCC(NC(=O)NC23CC4CC(CC(C4)C2)C3)CC1 [UNC10302683A, AR9281]
[1]; PBR, replicate 1
  Inhibition 1: 10.97% and 6.98%
[1]; PBR, replicate 2
  Inhibition 2: -9.87% and 57.06%
[1]; PBR, replicate 3
  Inhibition 3: -4.95% and 7.94%
[1]; PBR, replicate 4
  Inhibition 4: -4.51% and 19.02%
[2]; 5-HT6, mean inhibition
  Mean %: 9.33%
[2]; 5-HT6, replicate 1
  Inhibition 1: 32.27%
[2]; 5-HT6, replicate 2
  Inhibition 2: 17.51%
[2]; 5-HT6, replicate 3
  Inhibition 3: -5.68%
[2]; 5-HT6, replicate 4
  Inhibition 4: -6.79%
[3]; D2, mean inhibition
  Mean %: -5.85%
[3]; D2, replicate 1
  Inhibition 1: -4.63%
[3]; D2, replicate 2
  Inhibition 2: -2.98%
[3]; D2, replicate 3
  Inhibition 3: -11.83%
[3]; D2, replicate 4
  Inhibition 4: -3.95%
[4]; KOR, mean inhibition
  Mean %: -25.19%
[4]; KOR, replicate 1
  Inhibition 1: -27.43%
[4]; KOR, replicate 2
  Inhibition 2: -29%
[4]; KOR, replicate 3
  Inhibition 3: -23.06%
[4]; KOR, replicate 4
  Inhibition 4: -21.27%
[5]; M5, mean inhibition
  Mean %: -4.97%
[5]; M5, replicate 1
  Inhibition 1: 0.06%
[5]; M5, replicate 2
  Inhibition 2: -4.77%
[5]; M5, replicate 3
  Inhibition 3: -10.3%
[5]; M5, replicate 4
  Inhibition 4: -4.87%
[6]; D3, mean inhibition
  Mean %: -9.76%
[6]; D3, replicate 1
  Inhibition 1: -1.76%
[6]; D3, replicate 2
  Inhibition 2: -6.19%
[6]; D3, replicate 3
  Inhibition 3: -8.7%
[6]; D3, replicate 4
  Inhibition 4: -22.39%
[7]; 5-HT2C, mean inhibition
  Mean %: -19.88%
[7]; 5-HT2C, replicate 1
  Inhibition 1: -9.33%
[7]; 5-HT2C, replicate 2
  Inhibition 2: -11.78%
[7]; 5-HT2C, replicate 3
  Inhibition 3: -20.61%
[7]; 5-HT2C, replicate 4
  Inhibition 4: -37.79%
[8]; D1, mean inhibition
  Mean %: -14.57%
[8]; D1, replicate 1
  Inhibition 1: -3.64%
[8]; D1, replicate 2
  Inhibition 2: -20.64%
[8]; D1, replicate 3
  Inhibition 3: -32.3%
[8]; D1, replicate 4
  Inhibition 4: -1.7%
[9]; 5-HT1E, mean inhibition
  Mean %: -2.2%
[9]; 5-HT1E, replicate 1
  Inhibition 1: 8.11%
[9]; 5-HT1E, replicate 2
  Inhibition 2: -12.87%
[9]; 5-HT1E, replicate 3
  Inhibition 3: -6.96%
[9]; 5-HT1E, replicate 4
  Inhibition 4: 2.94%
[10]; 5-HT2B, mean inhibition
  Mean %: -14.63%
[10]; 5-HT2B, replicate 1
  Inhibition 1: 28.05%
[10]; 5-HT2B, replicate 2
  Inhibition 2: -19.35%
[10]; 5-HT2B, replicate 3
  Inhibition 3: -37.81%
[10]; 5-HT2B, replicate 4
  Inhibition 4: -29.42%
[11]; NET, mean inhibition
  Mean %: 6.47% and 1.67%
[11]; NET, replicate 1
  Inhibition 1: -14.58% and 25.31%
[11]; NET, replicate 2
  Inhibition 2: -2.12% and 13.5%
[11]; NET, replicate 3
  Inhibition 3: 2.28% and -19.09%
[11]; NET, replicate 4
  Inhibition 4: 40.3% and -13.05%

Source: publication PMC9005681, “Use of AD Informer Set compounds to explore validity of novel targets in Alzheimer's disease pathology” (Alzheimer's & Dementia : Translational Research & Clinical …, 2022)
